Experimental data from PMC12082688, “Temporal Distribution of Imidacloprid and Its Metabolites in Laying Hens: An Evaluation of the Potential Impact on Food Safety” (Journal of Agricultural and Food Chemistry, 2025).
Entries after “also recorded” stand apart in the source; their conditions may differ. Where two headings read alike, the source gives them in different places.

Legend:
[1] = Distribution of IMI and metabolites in tissues, eggs and feces after a single oral gavage dose, LC-MS/MS; assay type: in vivo; conditions: for metabolite abundance in tissues: 1 and 10 mg/kg IMI single oral gavage, all sampled tissues; for metabolite concentrations in eggs versus regulatory thresholds: eggs within 24 h postexposure to IMI
Procedure: (§1) Seventy-five, 61-week-old, Hy-line brown hens weighing 1.6–2.4 kg were housed in individual, 22” × 24” × 16” cages with nest box curtains and scratch pads, on two levels. Hens were acclimatized for 1 week on a 16-h light:8-h dark cycle. A wall exhaust fan maintained the temperature between 17–19 °C. A standard layer diet containing corn and soybean meal, 4.9% calcium and 16.5% protein was available ad libitum (Webberville Feed & Grain Co., Webberville, MI, USA). Water was available ad libitum. Hens were weighed and randomly assigned to one of three treatment groups (n = 5 hens/group) that received imidacloprid at 1 and 10% of a reported LD50 for chickens corresponding to 1 and 10 mg/kg of IMI or a placebo treatment (Lafeber Nutristart 1:3 in water; Lafeber Co., Cornell, Il, USA).[14] Birds were fasted overnight. Prior to gavage, crops were palpated to ensure that they were empty.
(§2) Analytical grade (active) imidacloprid powder (ChemService, West Chester, PA, USA) was dissolved in ethanol (10% v/v), mixed with corn oil, and then further dissolved in Lafeber Nutristart (1:3 in water; Lafeber Co., Cornell, Il, USA) to obtain final concentrations of 0.8 or 0.08 mg/mL.[8],[14] Treatments were prepared on the morning of administration, protected from light, kept on ice, and mixed thoroughly prior to administration. The concentrations and purity of IMI were verified before the start of the trial. IMI was administered by oral gavage using a 60-cc syringe and a 10 Fr × 16 in. red rubber urethral feeding catheter. After each administration, the catheter was flushed with 5 mL of water. Birds received a similar volume of treatment or placebo (20–30 mL).
(§3) Approximately 2–3 mL of blood was sampled from the brachial vein at 1, 2, 4, 24, 48, and 168 h postexposure, transferred into 2 mL EDTA tubes, sat at room temperature for 1–2 h, centrifuged at 1200g for 10 min, plasma was transferred into microcentrifuge tubes, and samples were kept at 4 °C until analysis within 1 week of study completion. Birds were humanely euthanized by cervical dislocation (n = 5 hens/treatment/time point). At 1, 4, 24, 48, and 168 h postexposure, approximately 1.0 g from the left pectoralis major, left quadriceps, left liver lobe, coelomic fat pad, spleen, right cranial and middle kidney lobes, and brain (cerebrum, optic lobes, cerebellum, brainstem) were collected, placed in Whirl-Pak sample bags (Nasco Sampling LLC, Madison, WI, USA), and kept at −20 °C until analysis. Whole eggs that were spontaneously laid or near completion in the shell gland were collected at 24 (n = 27), 48 (n = 24), 72 (n = 13), and 168 h (n = 12) after treatment and cracked in half, and yolk and albumen were kept in screw top specimen containers at −20 °C until analysis. […] Doses and time points were based on similar studies done in chickens[8] and Japanese Quail.[7] All animal procedures were approved by the Institutional Animal Care and Use Committee (IACUC) at MSU no. PROTO202300371.
Tissues were prepared for analysis by sectioning 0.5 g of homogeneous tissue (free of connective and vascular tissue) and placing it in a 7 mL Precellys bead tissue homogenization tube. Egg yolk and albumin from individual eggs were homogenized with an Omni International (Kennesaw, GA, USA) 125/TM125-11 hand-held homogenizer with a stainless steel 7 mm generator probe. Similar to tissues, 0.5 g of egg homogenate was placed in a 7 mL Precellys bead tissue homogenization tube. Two milliliters of acetonitrile containing 1 ng/mL of ISTD was added. Tissues were homogenized at room temperature with a Precellys Evolution Homogenizer (Bertin Technologies, Montigny-Le-Bretonneux, France): Speed–4500g, Cycle 2 × 20 s with a 20 s pause between cycles. The homogenized tissues and egg were centrifuged at 5400g for 10 min to pellet solid material at the bottom of the tube. 250 μL of the clear top layer from each tube was transferred to an autosampler vial for LC-MS/MS analysis. […]

[2] = Plasma concentration versus time profile after a single oral gavage dose, LC-MS/MS; assay type: in vivo, Hy-line brown hens; conditions: for time until plasma concentration below the limit of quantitation: 1 mg/kg single oral gavage, LOQ 0.5 ng/mL; for Tmax: female, Hy-line brown, in vivo
Procedure: as §1, §2, §3
Neonicotinoids were extracted from 200 μL of plasma, which was added to a test tube with […] of 0.5 ng/mL ISTD in acetonitrile. The mixture was vortexed for 40 s until well-mixed and then centrifuged for 5 min at 3000g. The supernatant was removed and filtered through a 0.2 μm PTFE membrane filter into an autosampler vial for LC-MS/MS analysis.
Analysis was performed with a liquid chromatographic-tandem mass spectrometer, an AB Sciex 6500+ ESI-MS/MS (SCIEX, Framingham, MA, USA) interfaced to a Shimadzu LC (Shimadzu Corp, Kyoto, Japan). Chromatography was achieved using the Kinetex F5:2.6 μm (100 mm × 3 mm) column (Phenomenex, Torrance, CA, USA). The column temperature was maintained at 40 °C with a column heater. Injection volume was 10 μL. The mobile phase consisted of 0.1% formic acid in Milli-Q water (mobile phase A) and 0.1% formic acid in acetonitrile (mobile phase B) at a flow rate of 0.5 mL/min. […]

[3] = cited from earlier work
[4] = IMI equivalents (sum of IMI and 6-chloropyridinyl moiety metabolites) in poultry products versus CFR/EFSA tolerance; design: species or system Hy-line brown hens; conditions: in vivo
Description: The specific absorption, distribution, metabolism, and excretion profile of IMI in laying hens and the presence of IMI and its metabolites in eggs are unknown. Therefore, the primary goal of this study was to evaluate food safety in the context of IMI’s temporal distribution and metabolite profile. To achieve this, IMI and its 6-chloropyridinyl moiety-containing metabolites (IMI-urea, IMI-olefin, desnitro-IMI, 5-OH-IMI, and 6-chloronicotinic acid) were quantitatively measured in blood, tissue, feces, and eggs following a single subclinical dose over time. These concentrations were measured using a liquid chromatography tandem mass spectrometry (LC-MS/MS) method and compared with tolerances established in the Code of Federal Regulations (CFR) and Article 12 of the European Food Safety Authority (EFSA) Regulation No 396/2005.[12],[13]
as §3
Tissues were prepared for analysis by sectioning 0.5 g of homogeneous tissue (free of connective and vascular tissue) and placing it in a 7 mL Precellys bead tissue homogenization tube. Egg yolk and albumin from individual eggs were homogenized with an Omni International (Kennesaw, GA, USA) 125/TM125-11 hand-held homogenizer with a stainless steel 7 mm generator probe. Similar to tissues, 0.5 g of egg homogenate was placed in a 7 mL Precellys bead tissue homogenization tube. Two milliliters of acetonitrile containing 1 ng/mL of ISTD was added. […]

layers = conditions: cited from earlier work
chickens = conditions: in vivo; cited from earlier work
laying hens = experiment: Response to treatment: clinical monitoring, post-mortem examination and daily egg production; assay type: in vivo; conditions: 1 or 10 mg/kg single oral gavage
Procedure: as §1
Analytical grade (active) imidacloprid powder (ChemService, West Chester, PA, USA) was dissolved in ethanol (10% v/v), mixed with corn oil, and then further dissolved in Lafeber Nutristart (1:3 in water; Lafeber Co., Cornell, Il, USA) to obtain final concentrations of 0.8 or 0.08 mg/mL.[8],[14] Treatments were prepared on the morning of administration, protected from light, kept on ice, and mixed thoroughly prior to administration. […]
Birds were closely monitored postgavage for any adverse reactions. […]

[5] = in vivo; cited from earlier work
birds = test system: birds; design: method as in PMID 32274821; conditions: cited from earlier work
[6] = in vivo, po; cited from earlier work
[7] = 10 mg/kg single oral gavage, read-out: time of peak concentration in plasma
[8] = domestic chickens, 15 days after the last exposure following daily exposure for 7 days

In the case of `O=[N+]([O-])/N=C1\NCC(O)N1Cc1ccc(Cl)nc1` (stereo not shown) [5-OH-IMI, 5-hydroxyimidacloprid], the “metabolite abundance in tissues” value [1] is reported as “metabolized predominantly to 5-OH-IMI”, the “metabolite concentrations in eggs versus regulatory thresholds” value [1] is reported as “exceeding current regulatory thresholds” and the “time until plasma concentration below the limit of quantitation” value [2] is reported as no more than 24 h. For the same molecule, the Tmax [2, 7] was 4 h and the “presence in feces, liver, muscle, spleen, kidney and brain” value (from here on “presence in feces, liver, muscle, spleen”) [3, 8] was “detected”.

In the case of `O=C(O)c1ccc(O)nc1` [6-OH-NA, 6-hydroxy nicotinic acid], the “presence in fecal matter” value ([1]; feces collected after IMI single oral gavage) is reported as “evidence in fecal matter for the formation; also recorded: presence of 6-OH-NA in fecal matter collected at 24 and 48 h post treatment”.

In the case of `O=[N+]([O-])Nc1nccn1Cc1ccc(Cl)nc1` [IMI-olefin, imidacloprid-olefin], the “metabolite abundance in tissues” value [1] is reported as “more abundant metabolite observed in most tissues except in the kidney where it was notably absent”, the “metabolite concentrations in eggs versus regulatory thresholds” value [1] is reported as “exceeding current regulatory thresholds” and the “time until plasma concentration below the limit of quantitation” value [2] is reported as no more than 24 h. For the same molecule, the “time of peak concentration in plasma” value ([2]; 10 mg/kg single oral gavage) was 4 h and the “presence in feces, liver, muscle, spleen” value [3, 8] was “detected”.

With `O=C1NCCN1Cc1ccc(Cl)nc1` [IMI-urea, imidacloprid urea] the “presence of metabolite in sample types” value ([1]; 10 mg/kg IMI single oral gavage) was “present in the 10 mg/kg treatment group for all sample types except in the liver”, the “metabolite abundance in tissues” value [1] was “equally abundant in kidney with 5-OH-IMI” and the “metabolite concentrations in eggs versus regulatory thresholds” value [1] was “exceeding current regulatory thresholds”. For the same molecule, the “time of peak concentration in plasma” value ([2]; 10 mg/kg single oral gavage) was 4 h.

With `O=[N+]([O-])NC1=NCCN1Cc1ccc(Cl)nc1` [IMI] the “IMI equivalents in adipose tissue versus 50 ppb (50 ng/g) threshold” value [4] was “no animal exceeded”, the “IMI equivalents in brain, liver, spleen and kidney versus threshold (50 ng/g)” value [4] was “surpassed the threshold for most animals” and the “IMI equivalents in liver and spleen versus threshold (50 ng/g)” value [4] was “remained in excess of the threshold for several animals”. For the same molecule, the “eggs with IMI equivalents exceeding the CFR regulatory threshold of 20 ppb (20 ng/g)” value [4] was 6 of 10, the LD50 (layers) was 104.1 mg/kg and the Tmax ([2]; po, 1 mg/kg) was no more than 1 h. For the same molecule, the Tmax ([2]; po, 10 mg/kg) was 4 h, the “presence in feces, liver, muscle, spleen” value ([3]; in vivo) was “detected” and the “adjusted effective dose (ED50) for neurologic signs” value (chickens) was 11.2 mg/kg/day. The “gross lesions at post-mortem examination” value (laying hens) was “no gross lesions were observed”, the “time of absorption into the bloodstream” value [5] was no more than 1 h and the “time of excretion in feces” value [5] was no more than 24 h. The clinical signs (birds; 10 mg/kg IMI administration) was “moderate sedation occurred within minutes”, the clinical signs (birds; birds given 1 mg/kg) was “no outward clinical signs” and the “residues in liver, pectoral muscle, brain and kidney” value [6] was “detected”.

Work on `N=C1NCCN1Cc1ccc(Cl)nc1` [desnitro-IMI, desnitro imidacloprid] yielded a Tmax [2, 7] of 4 h.
